{
  "source": "ChEMBL document CHEMBL4665868",
  "about": "“Study on the interaction between 4-(1H-indol-3-yl)-2-(p-tolyl)quinazoline-3-oxide and human serum albumin” (Bioorg Med Chem, 2020)",
  "type_in_all_cases": "ADME",
  "key": {"Albumin [1]": {"target": "T1, Albumin (Homo sapiens, UniProt P02768)", "T1 sequence (P02768 whole entry)": "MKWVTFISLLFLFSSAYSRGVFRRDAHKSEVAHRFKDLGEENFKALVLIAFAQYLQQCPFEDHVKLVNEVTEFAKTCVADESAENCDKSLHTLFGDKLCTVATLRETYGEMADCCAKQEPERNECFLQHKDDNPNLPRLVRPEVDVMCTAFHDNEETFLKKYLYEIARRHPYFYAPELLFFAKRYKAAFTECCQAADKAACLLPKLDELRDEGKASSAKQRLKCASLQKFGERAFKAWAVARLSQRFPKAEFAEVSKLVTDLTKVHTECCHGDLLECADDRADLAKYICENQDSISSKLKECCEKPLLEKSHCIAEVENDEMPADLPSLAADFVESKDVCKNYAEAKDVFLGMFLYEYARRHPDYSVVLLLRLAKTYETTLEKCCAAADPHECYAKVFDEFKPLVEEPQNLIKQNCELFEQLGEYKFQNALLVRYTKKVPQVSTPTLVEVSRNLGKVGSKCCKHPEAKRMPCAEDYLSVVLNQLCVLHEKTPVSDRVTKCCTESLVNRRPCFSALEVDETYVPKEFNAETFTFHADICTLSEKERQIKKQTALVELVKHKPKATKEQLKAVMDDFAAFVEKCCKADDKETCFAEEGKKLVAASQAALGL", "test": "Binding affinity to HSA […] site assessed as quenching in presence of ibuprofen at 0 to 100 uM after 5 mins by fluorescence based site competition assay", "settings": "isolated protein; call rule not given here"}, "Albumin [2]": {"target": "T1, Albumin", "test": "Binding affinity to HSA […] site assessed as quenching in presence of warfarin at 0 to 100 uM after 5 mins by fluorescence based site competition assay", "settings": "isolated protein, dose 0-100 µM"}, "Albumin [3]": {"target": "T1, Albumin", "test": "Binding affinity to HSA assessed as binding constant at 298 K by fluorescence spectrophotometer assay", "settings": "isolated protein"}, "Albumin [4]": {"target": "T1, Albumin", "test": "Binding affinity to HSA assessed as Stern-Volmer quenching constant at 298 K by fluorescence spectrophotometer assay", "settings": "isolated protein"}, "Albumin [5]": {"target": "T1, Albumin", "test": "Binding affinity to HSA assessed as binding constant at 300 K by fluorescence spectrophotometer assay", "settings": "isolated protein"}, "Albumin [6]": {"target": "T1, Albumin", "test": "Binding affinity to HSA assessed as change in entropy at 298 K by Van't Hoff plot analysis", "settings": "isolated protein"}, "Albumin [7]": {"target": "T1, Albumin", "test": "Binding affinity to HSA assessed as binding constant at 303 K by fluorescence spectrophotometer assay", "settings": "isolated protein"}, "Albumin [8]": {"target": "T1, Albumin", "test": "Binding affinity to HSA assessed as quenching constant at 300 K by fluorescence spectrophotometer assay", "settings": "isolated protein"}, "Albumin [9]": {"target": "T1, Albumin", "test": "Binding affinity to HSA assessed as Stern-Volmer quenching constant at 300 K by fluorescence spectrophotometer assay", "settings": "isolated protein"}, "Albumin [10]": {"target": "T1, Albumin", "test": "Binding affinity to HSA assessed as change in enthalpy at 298 K by Van't Hoff plot analysis", "settings": "isolated protein"}, "Albumin [11]": {"target": "T1, Albumin", "test": "Binding affinity to HSA assessed as quenching constant at 298 K by fluorescence spectrophotometer assay", "settings": "isolated protein"}, "Albumin [12]": {"target": "T1, Albumin", "test": "Binding affinity to HSA assessed as causing the change of the microenvironment of tyrosine residue by measuring red shift at 0 to 100 uM after 5 mins by fluorescence based Synchronous fluorescence spectroscopy", "settings": "isolated protein, dose 0-100 µM"}, "Albumin [13]": {"target": "T1, Albumin", "test": "Binding affinity to HSA assessed as quenching constant at 303 K by fluorescence spectrophotometer assay", "settings": "isolated protein"}, "Albumin [14]": {"target": "T1, Albumin", "test": "Binding affinity to HSA assessed as decrease in fluorescence intensity at 100 uM at by fluorescence spectrophotometer assay", "design": "scale not given: the % may be the effect or the level left", "settings": "isolated protein"}, "Albumin [15]": {"target": "T1, Albumin", "test": "Binding affinity to HSA […] site assessed as quenching in presence of digitoxin at 0 to 100 uM after 5 mins by fluorescence based site competition assay", "settings": "isolated protein"}, "Albumin [16]": {"target": "T1, Albumin", "test": "Binding affinity to HSA assessed as Stern-Volmer quenching constant at 303 K by fluorescence spectrophotometer assay", "settings": "isolated protein"}},
  "data": [
    {"molecule": "Cc1ccc(-c2nc3ccccc3c(-c3c[nH]c4ccccc34)[n+]2[O-])cc1", "values": [
      {"measurement": "Activity", "setting": "Albumin [1]", "result": "Active"},
      {"measurement": "Activity", "setting": "Albumin [2]", "result": "Not Active"},
      {"measurement": "K", "setting": "Albumin [3]", "result": "2.47 10^4L/mol"},
      {"measurement": "KSV", "setting": "Albumin [4]", "result": "1.4 10^4L/mol"},
      {"measurement": "K", "setting": "Albumin [5]", "result": "1.7 10^4L/mol"},
      {"measurement": "deltaS", "setting": "Albumin [6]", "result": 436, "unit": "J/mol·K"},
      {"measurement": "K", "setting": "Albumin [7]", "result": "1.03 10^4L/mol"},
      {"measurement": "Kq", "setting": "Albumin [8]", "result": "1.39 10^12L/mol.s"},
      {"measurement": "KSV", "setting": "Albumin [9]", "result": "1.39 10^4L/mol"},
      {"measurement": "deltaH", "setting": "Albumin [10]", "result": 33.227, "unit": "kcal/mol"},
      {"measurement": "Kq", "setting": "Albumin [11]", "result": "1.4 10^12L/mol.s"},
      {"measurement": "Activity", "setting": "Albumin [12]", "result": 9, "unit": "nm"},
      {"measurement": "Kq", "setting": "Albumin [13]", "result": "1.33 10^12L/mol.s"},
      {"measurement": "Activity", "setting": "Albumin [14]", "result": 49.2, "unit": "%"},
      {"measurement": "Activity", "setting": "Albumin [15]", "result": "Active"},
      {"measurement": "KSV", "setting": "Albumin [16]", "result": "1.33 10^4L/mol"}
    ]}
  ]
}
